Assay results reported in publication PMC12053052, “Comprehensive physicochemical, biophysical, and in vitro characterization of lung surfactant SP-A peptidomimetics” (Rsc Pharmaceutics, 2025).
Values joined by “and” are separate entries in the source; they are usually repeats but may differ in a detail not shown here. Identical values can stand only once. “Also recorded” adds a separate entry of the source. No end group written: not given here.

Columns and labels:
[1] = In vitro solubility in pure solvents; format: physicochemical; settings: excess solid, rotated 24 h at ambient room temperature, 0.2 μm filtered, HPLC-UV 220 nm, mean ± SD, N = 3; for solubility thermodynamic at 24 h: PBS, pH 7.4, aqueous buffer, thermodynamic from solid
Experimental: In vitro solubility measurements were conducted using conditions earlier reported.[13] Excess of peptide powder was added to known volume of pure solvent in a glass vial. The vial was allowed to rotate at ambient room temperature for 24 hours.[13] The test solution was filtered using 0.2 μm PTFE or PVDF membrane filters for organic and aqueous solvents respectively. The filtered solution was chemically analyzed by HPLC using conditions described in the HPLC section below.
(§1) High-performance liquid chromatography was used to quantify the peptides. The analysis was performed with a Shimadzu LC-2010AHT HPLC system (Kyoto, Japan), with autosampler fitted to a 20 μL sampling loop and dual wavelength UV-Vis detector and reverse phase C18 Phenomenex Prodigy™column (Torrance, CA) with 250 × 4.6 mm, 5 μm particle size. The mobile phase consisted of (A) 0.065% TFA in water and (B) 0.05% TFA in ACN at a flow rate of 1.0 mL min^−1. Analysis was performed using the following gradient elution method: 100% A to 100% B in 15 minutes, maintained at 100% B until 17.5 minutes. The percentage of A reached 100% in 19.5 minutes and maintained until 25 minutes. The column was maintained at 25 °C. The injection volume was 20 μL. The UV detector was set at 220 nm wavelength. The solvents used to dissolve 10-AA and 20-AA peptide analysis were PBS and pure water, respectively.

[2] = system: H358 (human bronchioalveolar epithelial cells); test: In vitro cell viability, resazurin assay; format: cell-based; settings: 0.1–1000 μM peptide, 72 h, relative to growth medium control, n = 6, ANOVA/Tukey p < 0.05
Text: (§2) The cell viability of three different human pulmonary cell lines from different lung areas representing the conducting airways, the mid-lung and deep lung respiratory regions of the small airways. They are A549 (human alveolar epithelial lung cells), H358 (human bronchioalveolar epithelial cells) and NCI-H441 (human papillary lung adenocarcinoma cells), were studied using the Resazurin assay. Pulmonary cell lines A549 (ATCC® CCL-185™), H358 (ATCC® CRL-5807™) and NCI-H441 (ATCC® HTB-174™) were purchased from the American Type Culture Collection ATCC® (Manassas, VA). As previously reported,[16] A549 and H358 were grown in Dulbecco's modified eagle's medium (DMEM) Advanced 1× supplemented with 10% v/v fetal bovine serum (FBS), Pen-Strep (100 U mL^−1, 100 μg mL^−1), Fungizone® (0.5 μg mL^−1 amphotericin B, 0.41 μg mL^−1 sodium deoxycholate) and 2 mM L-glutamine obtained from Gibco® by Life Technologies (Thermo Fisher Scientific Inc., Waltham, MA). H441 cell line was grown in RPMI 1640 with L-glutamine Gibco® by Life Technologies (Thermo Fisher Scientific Inc., Waltham, MA).
(§3) The assay was conducted using similar previously reported conditions.[16] Briefly, in Nunc™ MicroWell™ 96-well optical-bottom plates with polymer base (ThermoScientific Waltham, MA) each cell line was seeded at a concentration of 5000 cells in 100 μL per well (six wells, n = 6) and allowed to attach for 48 hours. The cells were treated with 100 μL volume of different concentrations (0.1–1000 μM) of the peptides dissolved in the respective media. After 72 hours, the plate was treated with 20 μL of 10 μM resazurin solution. After 3–4 hours, the fluorescence intensity was read at 514 nm (excitation) and 590 nm (emission) wavelengths using the Synergy H1 Multi-Mode Reader (BioTek Instruments, Inc., Winooski, Vermont). The corresponding growth media was used as control for each cell line. Relative viability was calculated as a ratio of fluorescence intensity of the sample to the control. [drawing 1]

[3] = Octanol/water partition coefficient; format: physicochemical; settings: shake-flask 1-octanol/water 50:50 v/v, 3 mg peptide in 3 mL, 37 °C, 24 h shaking + 24 h separation, HPLC-UV 220 nm, mean ± SD, N = 3
Experimental: Using similar conditions reported earlier,[14] octanol/water partition coefficient (P) measurements were conducted. A mass of 3 mg of peptide powder was added to 3 mL of 1-octanol (1.5 mL) and water (1.5 mL) to create a 50 : 50 v/v octanol : water ratio in a glass vial and allowed to shake in temperature-controlled water bath at 37 °C. After 24 hours, the shaker was stopped and the vial was undisturbed for 24 hours to allow the solvents to separate. An aliquot (20 μL) of water phase and octanol phase was injected into HPLC to quantify the peptide concentration in each phase.
as §1, with “The solvents used to dissolve 10-AA and 20-AA peptide analysis were PBS and pure water, respectively.” left out

[4] = system: A549 (human alveolar epithelial lung cells); test: In vitro cell viability, resazurin assay; format: cell-based; settings: 0.1–1000 μM peptide, 72 h, relative to growth medium control, n = 6, ANOVA/Tukey p < 0.05
Text: as §2, §3

[5] = system: NCI-H441 (human papillary lung adenocarcinoma cells); test: In vitro cell viability, resazurin assay; format: cell-based; settings: 0.1–1000 μM peptide, 72 h, relative to growth medium control, n = 6, ANOVA/Tukey p < 0.05
Text: as §2, §3

[6] = not given; remark: listed apart in the source

Row | Substance | solubility thermodynamic at 24 h [1] [µg/mL] | Solubility in absolute ethanol ([1]; thermodynamic) [µg/mL] | Solubility in methanol ([1]; thermodynamic) [µg/mL] | Solubility in MilliQ water ([1]; thermodynamic) [µg/mL] | Enthalpy (ΔH) of melting [J/g] | other results
1 | PAGRGKEQCVEMYTDGQWND [SP-A 20-AA PS] | 470 ± 4 | 110 ± 50 | 1450 ± 20 | – | – | Relative cell viability, H358 [2]: decreased viability at higher concentrations; also recorded: statistically significant decrease in viability only with 20-AA PS at 1000 μM
2 | KEQCVEMYTD [SP-A 10-AA PS] | 1810 ± 20 | 2060 ± 30 | 4250 ± 10 | 12200 ± 50 | – | Log P (octanol/water partition coefficient) [3]: −1.79
3 | PAGRGKEQCVEMYTDGQWND [SP-A 20-AA AC] | – | 20 ± 20 | 20 ± 5 | – | – | Relative cell viability, A549 [4]: significantly reduced cell viability at concentrations above 100 μM; Relative cell viability, H441 [5]: reduction in viability at higher concentrations; also recorded: significantly reduced cell viability at concentrations above 100 μM
4 | KEQCVEMYTD [SP-A 10-AA AC] | – | 40 ± 10 | 10 ± 0.3 | 420 ± 40 | – | Solubility in PBS (pH 7.4) ([1]; thermodynamic): 1.16 ± 0.01 mg mL^−1; logP ([3]; read-out: Log P (octanol/water partition coefficient)): -1.07 ± 0.2
5 | H-PAGRGKEQCVEMYTDGQWND-OH | – | – | – | – | 1.08 | –
6 | H-KEQCVEMYTD-OH | – | – | – | – | 3.08 | Melting temperature (Tm), characteristic endothermic peak [6]: 171 °C and 168 °C
